In data set [1] the test system is HepG2. Put plainly: Cytotoxicity against human HepG2 cells assessed as reduction in cell viability after 48 hrs by MTT assay. It counts as cell-based. Particulars: for IC50: Homo sapiens, HepG2, 48 h; for Activity: human, hepg2, 48 h. On the technique in general: Tetrazolium dyes change colour on reduction, which living cells bring about.
Data set [2] has as its system HepG2. Put plainly: Hypoglycemic activity in human HepG2 cells assessed as increase in glucose consumption after 48 hrs. The format is functional, cell-based.
The test system of data set [3] is HepG2. Put plainly: Hypoglycemic activity in human HepG2 cells assessed as increase in glucose consumption at 5 ug/ml after 48 hrs relative to control. The format is functional.
For data set [4], the system named is HepG2. Put plainly: Hypoglycemic activity in human HepG2 cells assessed as increase in glucose consumption at 5 ug/ml after 48 hrs relative to BBR. It counts as functional.
The nature of data set [5]: Ratio of compound IC50 to BBR IC50 for cytotoxicity against human HepG2 cells. The format is cell-based. Particulars: read-out: Ratio IC50.
Data set [6] relates to HepG2. Put plainly: Cytotoxicity against human HepG2 cells assessed as reduction in cell viability at 125 ug/ml after 48 hrs by MTT assay. The format is cell-based. Particulars: hepg2, 48 h.

What is called IC50 is the concentration needed to halve the response being measured. Turning to `COc1ccc2cc3[n+](cc2c1OC(=O)/C=C/c1ccccc1)CCc1cc2c(cc1-3)OCO2.[Cl-]`, the 50% inhibitory concentration (IC50) in the data set on HepG2 [1] is 52.3 µg/mL. Besides, the Activity entry in the data set on HepG2 [1] was “Dose-dependent effect”; with HepG2 [2], “Dose-dependent effect”; in the data set on HepG2 [3], 94.5%; in the data set with HepG2 [4], 33.6%.

For `COc1ccc2cc3[n+](cc2c1OC(=O)c1ccc([N+](=O)[O-])cc1)CCc1cc2c(cc1-3)OCO2.[Cl-]`, the concentration for half-maximal inhibition (IC50) in the data set on HepG2 [1] came out at 37.9 µg/mL. The Activity result with HepG2 [1] is “Dose-dependent effect”; with HepG2 [2] it was “Dose-dependent effect”; in the data set on HepG2 [3], 22.4%; with HepG2 [4], -15.9%.

With `COc1ccc2cc3[n+](cc2c1OC(=O)c1ccccn1)CCc1cc2c(cc1-3)OCO2.[Cl-]`, in the data set with HepG2 [1], the IC50 came to 41.6 µg/mL. Besides, the Activity entry with HepG2 [1] was “Dose-dependent effect”; in the data set on HepG2 [2], “Dose-dependent effect”; in the data set with HepG2 [3] it was 51.7%; in the data set on HepG2 [4] it was 4.2%.

Consider `COc1ccc2cc3[n+](cc2c1OC(=O)c1ccc(OC(C)=O)cc1)CCc1cc2c(cc1-3)OCO2.[Cl-]`, for which the IC50 in the data set on HepG2 [1] came out at 42.9 µg/mL. In addition, the Activity entry in the data set with HepG2 [1] is “Dose-dependent effect”; in the data set on HepG2 [2], “Dose-dependent effect”; in the data set with HepG2 [3], 31.7%; in the data set with HepG2 [4] it was -9.6%.

On to `COc1ccc2cc3[n+](cc2c1OC(=O)c1cccnc1)CCc1cc2c(cc1-3)OCO2.[Cl-]`, for which the IC50 in the data set with HepG2 [1] stood at 72.1 µg/mL. In addition, the Activity entry in the data set with HepG2 [1] is “Dose-dependent effect”; with HepG2 [2], “Dose-dependent effect”; with HepG2 [3], 45.7%; in the data set on HepG2 [4], 0%.

Turning to `COc1cc(/C=C/C(=O)Oc2c(OC)ccc3cc4[n+](cc23)CCc2cc3c(cc2-4)OCO3)ccc1OC(=O)c1cccnc1.[Cl-]`, the concentration for half-maximal inhibition (IC50) with HepG2 [1] is 91.5 µg/mL. Also, the Activity entry was “Dose-dependent effect” in the data set with HepG2 [1]; “Dose-dependent effect” with HepG2 [2]; 21.8% in the data set on HepG2 [3]; -16.3% in the data set with HepG2 [4]; “Non-Toxic” with HepG2 [6]. Moreover, in data set [5], the selectivity ratio worked out at 1.95.

Consider `COc1ccc2cc3[n+](cc2c1OC(=O)c1ccncc1)CCc1cc2c(cc1-3)OCO2.[Cl-]`, for which, in the data set on HepG2 [1], the IC50 came to 82.5 µg/mL. Further, the Activity result in the data set on HepG2 [1] is “Dose-dependent effect”; in the data set with HepG2 [2], “Dose-dependent effect”; in the data set with HepG2 [3] it was 30.2%; with HepG2 [4] it was -10.6%.

Turning to `COc1ccc2cc3[n+](cc2c1OC(=O)c1cccc([N+](=O)[O-])c1)CCc1cc2c(cc1-3)OCO2.[Cl-]`, in the data set on HepG2 [1], the IC50 stood at 27.9 µg/mL. Besides, the Activity entry in the data set on HepG2 [1] was “Dose-dependent effect”; in the data set on HepG2 [2] it was “Dose-dependent effect”; with HepG2 [3], 28%; with HepG2 [4] it was -12.1%.

In the case of `COc1ccc2cc3[n+](cc2c1OC(=O)c1ccccc1[N+](=O)[O-])CCc1cc2c(cc1-3)OCO2.[Cl-]`, in the data set on HepG2 [1], the IC50 was found to be 46.9 µg/mL. Besides, the Activity result was “Dose-dependent effect” in the data set with HepG2 [1], “Dose-dependent effect” in the data set with HepG2 [2], 33.8% in the data set with HepG2 [3] and -8.1% with HepG2 [4].

In the case of `CN(C)C(=N)NC(=N)N` [METFORMIN], the Activity with HepG2 [3] is 20%; in the data set with HepG2 [4], -17.6%.

Regarding `COc1cc(/C=C/C(=O)Oc2c(OC)ccc3cc4[n+](cc23)CCc2cc3c(cc2-4)OCO3)ccc1OC(C)=O.[Cl-]`, the IC50 with HepG2 [1] turned out to be 73.5 µg/mL. Also, the Activity entry was “Dose-dependent effect” in the data set with HepG2 [1], “Dose-dependent effect” in the data set on HepG2 [2], 85.5% in the data set with HepG2 [3] and 27.4% in the data set on HepG2 [4]. In addition, in data set [5], the selectivity ratio worked out at 1.57.

Take `COc1ccc2cc3[n+](cc2c1OC(=O)c1ccccc1)CCc1cc2c(cc1-3)OCO2.[Cl-]`: the half-inhibitory concentration (IC50) with HepG2 [1] was 65.9 µg/mL. Also, the Activity entry in the data set on HepG2 [1] is “Dose-dependent effect”; with HepG2 [2], “Dose-dependent effect”; in the data set on HepG2 [3], 40%; with HepG2 [4] it was -3.9%.

In the case of `COc1ccc2cc3[n+](cc2c1OC)CCc1cc2c(cc1-3)OCO2` [BERBERINE], the IC50 in the data set on HepG2 [1] was 46.9 µg/mL. In addition, the values for the Activity entry in the data set with HepG2 [1], in the data set on HepG2 [3] and in the data set on HepG2 [6] were “Dose-dependent effect”, 45.6% and “Toxic”, respectively.

Values taken from ChEMBL document CHEMBL4431369, “Synthesis and hypoglycemic activity of 9-O-(lipophilic group substituted) berberine derivatives” (Bioorg Med Chem Lett, 2016).
